Data on one molecule can be found in US20070191452A1, “USE OF BENZO-HETEROARYL SULFAMIDE DERIVATIVES FOR THE TREATMENT OF PAIN” (priority 2006, published 2007).

Broadly, the ED50 is the dose that gives a 50% effect, or the effect in half of the subjects.

Common to all, as to assay type: in vivo
Test [1] concerns formalin-induced inflammatory-mediated pain response (hind-paw licking). As to the kind of experiment: Mouse Formalin Assay. The following applies: i.p.; for acute response, decrease from control: acute phase. As for the experimental part: The mouse formalin test is an acute and chronic model for testing the ability of a test compound for the treatment of pain.
In the Mouse Formalin Test, 0.5% formalin was injected s.c. into the plantar region of the hind-paw of adult male mice to induce an inflammatory-mediated pain response. Pain was expressed as licking of the injected area in a bi-modal manner—acute and chronic phase. The acute phase occurred immediately and lasted approximately 10-15 min post-injection, representing direct stimulation of pain fibers. Licking behavior resumes approximately 10 mins later (˜20 min post injection) and lasted 10-15 min, representing the chronic phase due to centralized sensitization in dorsal horn neurons and hypothesized to be caused by the release of inflammatory mediators such as cytokines.
Activity in the acute phase of the formalin test is an indicator of acute pain believed to correlate with peripheral pain pathways.

Test [2] concerns Taxol induced mechanical allodynia in the rat hind paw. As to the kind of experiment: Taxol-Induced Peripheral Neuropathy (von Frey paw withdrawal threshold). Conditions: 100 mg/kg, p.o. daily for 12 days with Taxol 2 mg/kg i.p.; day 12; not statistically different from baseline (16.42±2.14 g). An excerpt:
Peripheral neuropatheis are chronic conditions that arise when nerves are damaged by trauma, disease, metabolic insufficiency or by certain drugs and toxins. The sensory disturbances associated with chemotherapeutic agents, such as paclitaxel (Taxol), range from mild tingling to spontaneous burning, typically in the hands and feet. Symptoms become more intense with continued therapy and can lead to weakness, ataxia, numbness and pain. Taxol-induced peripheral neuropathy in rats have therefore been used as a model of peripheral neuropathies in humans.
Male Sprague-Dawley rats (Harlan) were randomly assigned to two treatment groups: vehicle (0.5% hypromellose, p.o.) and Compound #1 (100 mg/kg, p.o). All rats were injected with Taxol (2 mg/kg, i.p.) on days 1, 3, 5 and 7. At the same time, rats received daily oral gavage of vehicle or Compound #1, starting the day of the first Taxol injection and continuing for 12 days.
All animals were acclimated to the allodynia procedure 2-3 days prior to testing allowing the rats to habituate to the testing devices. Rats underwent Von Frey hair testing as a measure of mechanical allodynia at baseline and on days 5 and 12 post-Taxol injection. Tactile sensitivity was measured using calibrated filaments touched to the plantar surfaces of the affected limb. […]

The subject of test [3] is mechanical (tactile) allodynia after L5 nerve ligation. In words: Rat Chung Model of Neuropathic Pain (L5 nerve ligation, von Frey mechanical allodynia). The method, then: The rat Chung model is an assay used in determining whether a compound is useful for the treatment of neuropathic pain (Kim and Chung, 1994; Chaplan et al., 1994).
In this study, male Sprague Dawley rats (145-165 g; Harlan) were anesthetized and the L5 nerve was isolated and ligated with silk suture material resulting in mechanical allodynia. Two weeks post-ligation, rats were dosed acutely with vehicle (an aqueous solution of 0.5% methylcellulose) or Compound #1 at 15, 30, 60, 120 or 240 mg/kg, p.o. Mechanical (tactile) allodynia was quantified by recording the pressure at which the affected paw withdrew from a graded stimulus (von Frey hairs) at 30 min, 1, 2 and 4 h post-dosing. Data were normalized and results are presented as % MPE (maximum […] effect) of the drug.

[4] abbreviates: 107 mg/kg, 15 min prior to formalin injection, p<0.01.

Consider `NS(=O)(=O)NCc1csc2ccccc12` [Compound #1, N-(benzo[b]thien-3-ylmethyl)-sulfamide], for which the “acute response, decrease from control” value is 32% in test [1] (53 mg/kg, p<0.05) and 52% in test [1] (setting [4]). Further, the “chronic phase response, decrease from control” value in test [1] (53 mg/kg, p<0.01) is given as 67%; in test [1] (setting [4]), 88%. For the same molecule, in test [2], the withdrawal force stood at 14.32 ± 5.45 g. For the same molecule, the “improvement in the allodynic response (% MPE)” value in test [3] (240 mg/kg, p.o., at 1 h post-dosing) is 80%. Also, the ED50 in test [3] (Rattus norvegicus, po, at 1 h post-dosing, n=5 rats/dose, read-out: acute oral ED50) was 169 mg/kg. For the same molecule, the “time of peak efficacy post-dosing” value in test [3] (p.o., efficacy observed at 30 min, gone by 4 h) came out at 1 h.
